Like-named read-outs stand apart in the source and are kept apart here.
Experiments:
[1] = biological target: T1, Trp-p8 (Homo sapiens, UniProt Q7Z2W7); assay: Calcium ion uptake / flux (FLIPR) in cells expressing Trp-p8; assay type: cell-based; details: for Peak (FLIPR): maximum calcium ion flux at 10 microM
T1 construct: expressed in transfected cells; host or cells: 293 and PC3 cells expressing Trp-p8 (non-expressing controls: 293, PC3, PC3/neo)
Text: General methods and materials disclosed in R. Skyryma, et al., J. Physiology, 2000, 527.1, 71-83, for assessing and measuring calcium ion flux or cell uptake, and induction of apoptosis were adapted for use in the present disclosure and as illustrated herein. Other test methods and procedures such as described below, including cell line culturing, transfection, and in vivo and in vitro tumor growth inhibition, are readily apparent to one of ordinary skill in the art upon comprehending the disclosure.
Calcium ion uptake experiments were conducted as follows. Calcium uptake was measured for cells expressing Trp-p8 tumor antigen and for cells not expressing Trp-p8 tumor antigen after each cell line was contacted with cool-genic compounds of the present disclosure. […] Cells not expressing tumor antigen had essentially no observable calcium uptake over all of the cool-genic compound concentrations. […] Cell lines included non-expressing lines: 293, PC3, and PC3/neo; and tumor antigen expressing lines: […].

[2] = tested on: 293/Trp-p8.clone 10; assay: IC50 on 293/Trp-p8.clone 10; assay type: cell-based, human; details: read-out: IC50 293/Trp-p8.c10
Protocol: (§1) Human Cell Killing in vitro by Compounds that Activate Trp-p8. Referring to the Figures, in FIG. 1 the effectiveness of selected cool-genic compounds in human cell killing was evaluated. The order and potency of cool-genic compounds were compared in two related human cell lines, one was 293 cells expressing Trp-p8 and a second was matched 293 cells lacking (not expressing) Trp-p8 used as a control. There were about 50,000 cells per well at plating. The cool-genic compounds were added at plating. The cells were treated by exposing the cells to the individual compounds at varying concentrations over about 0.1 to about 1,000 microM for 72 hours. […] FIGS. 1A and 1C show the response of cells expressing Trp-p8 and treated with the indicated numbered or named coolgenic compounds. FIGS. 1B and 1D show the response of cells without (not expressing) Trp-p8 and also treated with the indicated coolgenic compounds. […] Compound IIa4-1 had the best kill (IC50<1 microM) for cells expressing Trp-p8.

[3] = tested on: 293/Trp-p8.clone 18; assay: IC50 on 293/Trp-p8.clone 18; assay type: cell-based, human; details: read-out: IC50 293/Trp-p8.c18
Protocol: as §1

[4] = tested on: PC3/Trp-p8; assay: PC3/Trp-p8 cell killing; assay type: cell-based, human
[5] = tested on: 293 cells expressing Trp-p8; assay: Human cell killing in vitro, 293 cells expressing Trp-p8; assay type: cell-based
Protocol: as §1

[6] = tested on: PC3/Trp-p8.clone 21; assay: IC50 on PC3/Trp-p8.clone 21; assay type: cell-based; details: Homo sapiens, PC3/Trp-p8.clone 21, in duplicate

T1 sequence (Q7Z2W7 whole entry): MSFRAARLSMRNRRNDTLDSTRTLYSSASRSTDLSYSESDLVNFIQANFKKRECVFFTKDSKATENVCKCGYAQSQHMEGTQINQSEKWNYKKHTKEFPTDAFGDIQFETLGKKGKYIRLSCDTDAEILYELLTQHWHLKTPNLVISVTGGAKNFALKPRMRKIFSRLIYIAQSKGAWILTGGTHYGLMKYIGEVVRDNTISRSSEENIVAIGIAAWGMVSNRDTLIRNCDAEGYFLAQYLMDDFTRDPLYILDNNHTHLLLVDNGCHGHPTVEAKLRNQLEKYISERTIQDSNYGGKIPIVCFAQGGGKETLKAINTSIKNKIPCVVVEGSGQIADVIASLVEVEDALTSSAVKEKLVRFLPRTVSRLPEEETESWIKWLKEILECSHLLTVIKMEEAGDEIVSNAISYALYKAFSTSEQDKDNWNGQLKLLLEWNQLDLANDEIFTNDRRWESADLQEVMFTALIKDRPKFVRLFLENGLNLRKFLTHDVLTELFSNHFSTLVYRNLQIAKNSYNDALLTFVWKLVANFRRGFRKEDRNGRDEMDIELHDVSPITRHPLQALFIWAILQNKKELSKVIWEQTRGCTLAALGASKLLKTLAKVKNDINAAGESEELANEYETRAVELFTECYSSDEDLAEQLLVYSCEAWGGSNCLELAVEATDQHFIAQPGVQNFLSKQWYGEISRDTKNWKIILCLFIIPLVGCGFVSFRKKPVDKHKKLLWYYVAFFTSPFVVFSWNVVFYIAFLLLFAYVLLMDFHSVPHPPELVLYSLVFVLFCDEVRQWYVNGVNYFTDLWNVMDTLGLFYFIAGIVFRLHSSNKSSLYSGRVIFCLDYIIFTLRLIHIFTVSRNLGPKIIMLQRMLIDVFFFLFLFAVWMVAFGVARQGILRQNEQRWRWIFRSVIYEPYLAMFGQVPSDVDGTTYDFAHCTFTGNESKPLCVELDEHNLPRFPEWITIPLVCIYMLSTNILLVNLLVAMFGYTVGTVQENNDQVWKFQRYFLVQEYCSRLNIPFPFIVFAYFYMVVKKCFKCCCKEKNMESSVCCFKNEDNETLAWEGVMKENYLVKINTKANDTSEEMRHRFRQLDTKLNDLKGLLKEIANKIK

SMILES | Peak (FLIPR) [1] | IC50 ([2]; Homo sapiens) [nM] | IC50 ([3]; Homo sapiens) [nM] | further results
CCNC(=O)C1CC(C)CCC1C(C)C (centres unmarked) [IIb-1] | 25,000 |  |  | 
CC1CCC(C(C)C)C(C(=O)Nc2ccc3c(c2)CCC3)C1 (centres unmarked) [IIa6-3, 2-Isopropyl-5-methyl-cyclohexanecarboxylic acid indan-5-ylamide] |  | 1350 | 1710 | 
CC1CCC(C(C)C)C(C(=O)NC(C)C)C1 (centres unmarked) [IIb-2] | 25,100 |  |  | PC3/Trp-p8 Cell Killing [4]: Yes; 293/Trp-p8 Cell Killing [5]: Yes
CC1CCC(C(C)C)C(C(=O)Nc2ccc(N3CCOCC3)cc2)C1 (centres unmarked) [IIa4-9, 2-Isopropyl-5-methyl-cyclohexanecarboxylic acid (4-morpholin-4-yl-phenyl)-amide] |  | 1280 | 1450 | 
CC(C)[C@@H]1CC[C@@H](C)C[C@H]1C(=O)Nc1ccc(O)cc1 [IIa4-3] |  | 1230 | 1050 | IC50 [6]: 4270 nM
CC(C)[C@@H]1CC[C@@H](C)C[C@H]1C(=O)Nc1ccccc1 [IIa4-2] |  | 3210 | 3380 | 
COc1ccc(NC(=O)C2CC(C)CCC2C(C)C)cc1 (centres unmarked) [IIa4-1, 2-Isopropyl-5-methyl-cyclohexanecarboxylic acid(4-methoxy-phenyl)-amide] | 31,000 | 420 | 580 | IC50 [6]: 1640 nM; IC50 [3]: 450 nM; calcium uptake ([1]; cells expressing Trp-p8, about 0.0001 to about 10 microM): particularly high calcium uptake; PC3/Trp-p8 Cell Killing [4]: Yes; 293/Trp-p8 Cell Killing [5]: Yes; IC50 ([5]; Homo sapiens, HEK293, 72 hours, about 50,000 cells per well, read-out: IC50 (kill) for cells expressing Trp-p8): < 1000 nM
CC(C)c1ccc(NC(=O)[C@@H]2C[C@H](C)CC[C@H]2C(C)C)cc1 [IIa4-4] |  | 760 | 980 | IC50 [6]: 3210 nM
CC(C)[C@@H]1CC[C@@H](C)C[C@H]1C(=O)Nc1ccc(Cl)cc1 [IIa4-5] |  | 1990 | 17600 | 
CC(C)[C@@H]1CC[C@@H](C)C[C@H]1C(=O)Nc1cccc(F)c1 [IIa10-2] |  | 6310 | 2910 | 
CC1CCC(C(C)C)C(C(=O)NC(C)(C)C)C1 (centres unmarked) [IIb-4] | 25,100 |  |  | 293/Trp-p8 Cell Killing [5]: Yes
Cc1ccc(NC(=O)[C@@H]2C[C@H](C)CC[C@H]2C(C)C)cc1 [IIa4-7] |  | 1210 | 1140 | 
COc1ccc(NC(=O)[C@@H]2C[C@H](C)CC[C@H]2C(C)C)cc1F [IIa6-1] |  | 790 | 600 | 
COc1cccc(NC(=O)[C@@H]2C[C@H](C)CC[C@H]2C(C)C)c1 [IIa10-1] |  | 3800 | 3690 | 
CC(C)[C@@H]1CC[C@@H](C)C[C@H]1C(=O)Nc1ccc(C(C)(C)C)cc1 [IIa4-11, 2-Isopropyl-5-methyl-cyclohexanecarboxylic acid(4-tert-butyl-phenyl)-amide] |  | 1230 | 1410 | 
O=C1NC(c2cccc([N+](=O)[O-])c2)=CCN1c1ccccc1O [Icilin, 3-(2-Hydroxy-phenyl)-6-(3-nitro-phenyl)-3,4-dihydro-1H-pyrimidin-2-one, reference compound] | 20,000 | 79200 |  | 
COc1ccccc1NC(=O)[C@@H]1C[C@H](C)CC[C@H]1C(C)C [IIa8-1] |  | 16700 | 17600 | 
CC1CCC(C(C)C)C(C(=O)NC(C)(C)CO)C1 (centres unmarked) [IIb-3] | 25,100 |  |  | PC3/Trp-p8 Cell Killing [4]: Yes; 293/Trp-p8 Cell Killing [5]: Yes
COc1ccc(NC(=O)[C@@H]2C[C@H](C)CC[C@H]2C(C)C)c(C)c1 [IIa12-1] |  | 1140 | 930 | 
CCC(C)NC(=O)C1CC(C)CCC1C(C)C (centres unmarked) [IIb-5] | 23,300 |  |  | 
CCC(C)c1ccc(NC(=O)[C@@H]2C[C@H](C)CC[C@H]2C(C)C)cc1 (some centres unmarked) [IIa4-10, 2-Isopropyl-5-methyl-cyclohexanecarboxylic acid(4-sec-butyl-phenyl)-amide] |  | 3590 | 1080 | 
Cc1cc(NC(=O)[C@@H]2C[C@H](C)CC[C@H]2C(C)C)ccc1C(C)C [IIa6-4, 2-Isopropyl-5-methyl-cyclohexanecarboxylic acid(4-isopropyl-3-methyl-phenyl)-amide] |  | 5050 | 4370 | 
CCc1ccc(NC(=O)[C@@H]2C[C@H](C)CC[C@H]2C(C)C)cc1 [IIa4-8] |  | 730 | 680 | 
CC(C)[C@@H]1CC[C@@H](C)C[C@H]1C(=O)Nc1ccc(F)cc1 [IIa4-6] |  | 3580 | 3780 | 
CCCc1ccc(NC(=O)[C@@H]2C[C@H](C)CC[C@H]2C(C)C)cc1 [IIa4-12, 2-Isopropyl-5-methyl-cyclohexanecarboxylic acid(4-propyl-phenyl)-amide] |  | 5650 | 4930 | IC50 [6]: 12900 nM
COc1ccc(NC(=O)C2CC(C)CCC2C(C)C)cc1Cl (centres unmarked) [IIa6-2, 2-Isopropyl-5-methyl-cyclohexanecarboxylic acid(3-chloro-4-methoxy-phenyl)-amide] |  |  |  | IC50 [2]: 3100 nM; IC50 [3]: 2570 nM

Now from value to compound, other results behind:

Peak (FLIPR) [1] | SMILES | IC50 ([2]; Homo sapiens) [nM] | IC50 ([3]; Homo sapiens) [nM] | further results
29,000 | CCOC(=O)CNC(=O)C1CC(C)CCC1C(C)C (centres unmarked) [XIII-1] |  |  | PC3/Trp-p8 Cell Killing [4]: Yes; 293/Trp-p8 Cell Killing [5]: Yes
17,500 | CC1CCC(C(C)C)C(C(=O)OCCOCCO)C1 (centres unmarked) [Compound V-4] |  |  | 
22,000 | CCCCCCP(=O)(C(C)CC)C(C)CC (centres unmarked) [IV-3] |  |  | 
29,000 | CCCCCP(=O)(C(C)CC)C(C)CC (centres unmarked) [IV-2] |  |  | 
25,000 | COC(=O)CNC(=O)C1CC(C)CCC1C(C)C (centres unmarked) [XIII-2] |  |  | 
9,600 | CC1CCC(C(C)C)C(C(=O)O)C1 (centres unmarked) [Compound V-1] |  |  | 
5,000 | CNC(=O)C(C)(C(C)C)C(C)C [III-1] |  |  | 
31,000 | CCCCCCCP(=O)(C(C)CC)C(C)CC (centres unmarked) [IV-1] |  |  | 293/Trp-p8 Cell Killing [5]: Yes
17,000 | CC1CCC(C(C)C)C(C(=O)OCCO)C1 (centres unmarked) [Compound V-2] |  |  | 

From patent publication US7893072B2, “Trp-p8 active compounds and therapeutic treatment methods” (Genentech, Inc., priority 2003, dated 2011)
